{
  "source": "patent US20100099737A1",
  "about": "“COMPOSITIONS AND METHODS FOR TREATING MYELOSUPPRESSION” (priority 2006, published 2010)",
  "format_in_all_cases": "cell-based, human",
  "key": {"phospho PKB (Ser 473)": {"test_system": "phospho PKB (Ser 473)", "test": "Immunoblot of PKB / phospho PKB (Ser 473) in siRNA-transfected TF1 cells stimulated with GM-CSF", "settings": "vs siNS, FIG. 1F", "excerpt": "TF1 cells transfected with siSHIP ([…], SEQ ID NO: 11) or siNS were stimulated with the cytokine GM-CSF for the indicated length of time."}, "TF1 cells [1]": {"test_system": "TF1 cells", "test": "Survival of siRNA-transfected TF1 cells without growth factors, viable cells by trypan blue exclusion", "settings": "absence of growth factors, counted daily by trypan blue exclusion, vs siNS, FIG. 1G", "protocol": "(§1) TF1 cells transfected with siSHIP (triangles) or siNS (squares) were cultured in the absence of growth factors and the total number of viable cells counted daily by trypan blue exclusion (FIG. 1G), TF1 cells were cultured in the presence of increasing concentrations of the growth promoting cytokine IL-5, 2 days after siRNA transfection. Proliferation of siSHIP (diamonds) and control siNS (solid diamonds) transfected TF-1 cells was measured by [^3H]-thymidine incorporation (FIG. 1H)."}, "TF1 cells [2]": {"test_system": "TF1 cells", "test": "Proliferation of siRNA-transfected TF1 cells with IL-5, [3H]-thymidine incorporation", "settings": "sub-optimal levels of IL-5, 2 days after siRNA transfection, vs siNS, FIG. 1H", "protocol": "as §1"}, "[3]": {"test_system": "TF1 hemopoietic progenitor cell line", "test": "Resistance of siRNA-transfected TF1 cells to chemotherapy drugs, [3H]-thymidine incorporation", "settings": "4 days after transfection, cisplatin, doxorubicin and taxotere, complete growth media, read 2 days later, vs control siRNA, FIG. 2", "protocol": "The TF1 hemopoietic progenitor cell line was transfected with SHIP1 siRNA or control siRNA as in FIG. 1. After 4 days, the cells were assessed at the indicated concentrations of cisplatin, doxorubicin and taxotere in the presence of complete growth media, [^3H]-thymidine incorporation was measured 2 days later."}},
  "data": [
    {"substance": "siSHIP: siRNA to human SHIP1 mRNA (NM_001017915), position 2437, AAGAGTCAGGAAGGAGAAAAT (SEQ ID NO: 11) (listed as DNA, chemistry not given here)", "values": [
      {"measurement": "activation of the PIP3 dependent kinase PKB (phospho PKB Ser 473)", "setting": "phospho PKB (Ser 473)", "result": "enhanced the activation"},
      {"measurement": "survival (total number of viable cells)", "setting": "TF1 cells [1]", "result": "considerably increased survival"},
      {"measurement": "proliferation ([3H]-thymidine incorporation)", "setting": "TF1 cells [2]", "result": "considerably increased"},
      {"measurement": "resistance to chemotherapy drugs ([3H]-thymidine incorporation)", "setting": "[3]", "result": "significantly more resistant"}
    ]}
  ]
}
